# From publication PMC10286336, “Potassium ion channels as a molecular target to reduce virus infection and mortality of honey bee colonies” (Virology Journal, 2023)
# Read-outs that look alike come from different tables or passages of the source.
# What was measured:
# Assay type in all cases: in vivo, Apis mellifera
# [1] = test system: bees inoculated with Israeli acute paralysis virus (IAPV); test: IAPV-mediated mortality of bees fed KATP modulator or paraquat; parameters: Survivorship after IAPV inoculation compared to IAPV alone: dose or concentration left out as unconfirmed
# Method: IAPV was obtained following our previously described methods. Approximately 30 adult bees from a heavily infected IAPV infected colony were froze in liquid nitrogen, ground to a fine powder, and homogenized in a phosphate extraction buffer. The supernatant was collected after centrifuging the emulsion and filtered through a 0.2 micron filter. The filtrate was subsequently centrifuged at 30,000 rpm to pellet the picornavirus particles and was followed by resusopension in PBS and centrifuged at 52,000 rpm overnight. The fractions containing virus particles were dialyzed against cold PBS overnight. Verification that IAPV was the only virus present in the inoculum was performed via qRT-PCR and quantification of IAPV was performed by absolute quantification using standard curve method as previously described.
# Bees were immobilized on ice, then injected with PBS alone or containing IAPV and returned to the incubator. […] Quantification of IAPV mRNA among whole bees and excised insect dorsal vessels was performed by qRT-PCR as detailed below.
# honey bees [2] = test system: honey bees
# Method: An LC50 for paraquat in 1:1 sucrose diet was determined for 72 h of oral exposure by constructing a concentration–response curve. The ability of KATP modulators to rescue or synergize paraquat-induced mortality was then assessed by incorporating modulators into 1:1 sucrose containing paraquat. Mortality assessments and sampling of surviving bees was conducted at 24-h intervals. Quantification of ROS among survivors was performed using the Total Antioxidant Capacity Assay kit (Cayman Chemical).
# honey bees [3] = test system: honey bees; remark: listed apart in the source
# Method: (§1) The ability of KATP modulators to rescue or synergize paraquat-induced mortality was then assessed by incorporating modulators into 1:1 sucrose containing paraquat. […] Quantification of ROS among survivors was performed using the Total Antioxidant Capacity Assay kit (Cayman Chemical).
# [4] = test system: total antioxidant concentrations in bees; test: Total antioxidant capacity of bees (quantification of ROS); conditions: alone
# Method: as §1
# [5] = test system: bees from Varroa destructor infested colonies
# Method: Age-matched bees from colonies with higher (> 10 mites/100 bees) and lower (< 1 mite/100 bees) were placed in hoarding cages and allowed to feed ad libitum on sucrose solution alone or containing paraquat. Survivorship was assessed at 24-h intervals, and LT50 times were calculated by nonlinear regression using a Hill equation.
# phenoloxidase (POX) = test: Phenoloxidase activity of treated bees (individual immunity); conditions: 72 h post-exposure
# Method: (§2) Individual bees were sampled at 24-h intervals and frozen in liquid nitrogen. Social immunity was measured by quantifying the metabolism of glucose to hydrogen peroxide by glucose oxidase. Briefly, heads were homogenized in ice-cold extraction buffer then centrifuged at 15,000×g. Aliquots of supernatant were incubated with horse radish peroxidase and glucose at 37 °C, then combined with the chromogen o-dianisidine dihydrochloride. Absorbance was read at 430 nm over a period of 90 min and compared to sample blanks, lacking chromogen. To measure individual immunity, phenoloxidase activity was measured as described. Abdomens were homogenized as and centrifuged as previously described. Supernatant was incubated at 37 °C, then combined with the chromogen L-Dopa. Absorbance was measured at 490 nm for 20 min, then compared to sample blanks lacking chromogen. To compare both glucose oxidase and phenol oxidase activity between samples, Vmax was calculated using the Michaelis–Menten equation.
# glucose oxidase (GOX) = test: Glucose oxidase activity of treated bees (social immunity); conditions: in vivo
# Method: as §2
smiles,measurement,setting,value
"C[n+]1ccc(-c2cc[n+](C)cc2)cc1 [paraquat, Paraquat dichloride hydrate]",Survivorship after IAPV inoculation compared to IAPV alone,[1],increased survivorship
same,Mortality of IAPV + paraquat versus untreated control,"[1]; 0.5 mg/mL paraquat, 24- and 48-h post-inoculation",not significantly different
same,Mortality of paraquat + IAPV versus untreated and IAPV-only bees,"[1]; 0.5 mg/mL paraquat, 72 h post-inoculation","significantly (P < 0.05) greater than untreated bees, but significantly less than IAPV-only treated bees"
same,Mortality,"honey bees [2]; paraquat 1 and 2 mg/mL, 48 h post-exposure",ca. 50%
same,Mortality,"honey bees [2]; paraquat 1 and 2 mg/mL, 72 h post-exposure",ca. 100%
same,Mortality,"honey bees [2]; paraquat, 48 h post-exposure",ca. 20%
same,Mortality,"honey bees [2]; paraquat, 72 h post-exposure",~58%
same,LT50,"honey bees [3]; 0.5 mg/mL paraquat alone, injection experiment",ca. 75 h
same,LT50,"honey bees [3]; oral, paraquat exposure alone",ca. 68 h
same,Reduction of total antioxidant concentrations compared to untreated,[4]; 24 h,1.3 fold
same,Reduction of total antioxidant concentrations compared to control treatment,[4]; 48 h,1.4 fold
same,Survivorship difference between low and high mite groups,[5]; 1 and 2 mg/mL paraquat,no statistical differences
same,LT50 (95% CI),"[5]; High mites, paraquat 0.1 mg/mL",169 (142–177) Ba Hours
same,LT50 (95% CI),"[5]; High mites, paraquat 0.5 mg/mL",99 (71–136) Bb Hours
same,LT50 (95% CI),"[5]; High mites, paraquat 1 mg/mL",52 (22–84) Ac Hours
same,LT50 (95% CI),"[5]; High mites, paraquat 2 mg/mL",47 (38–63) Ac Hours
same,LT50 (95% CI),"[5]; Low mites, paraquat 0.1 mg/mL",82 (51–99) Aa Hours
same,LT50 (95% CI),"[5]; Low mites, paraquat 0.5 mg/mL",66 (52–80) Ab Hours
same,LT50 (95% CI),"[5]; Low mites, paraquat 1 mg/mL",54 (38–70) Ab Hours
same,LT50 (95% CI),"[5]; Low mites, paraquat 2 mg/mL",49 (42–56) Ab Hours
same,Survivorship of bees from high versus low mite-infested colonies,"[5]; paraquat 0.1 mg/mL, 96- to 168-h post treatment",significantly increased
same,Mortality in high mite versus low mite colonies,"[5]; paraquat 0.5 mg/mL, 72- and 96-h post treatment",significant (P < 0.05) reduction of mortality
same,POX activity,phenoloxidase (POX),significantly reduced
same,Decrease in GOX compared to pinacidil-treated bees,glucose oxidase (GOX),3.3 fold
same,Decrease in GOX compared to untreated bees,glucose oxidase (GOX),11 fold
CCCCNC(=O)NS(=O)(=O)c1ccc(C)cc1 [tolbutamide],Effect on paraquat-induced toxicity,"honey bees [3]; pre-exposure to modulator, 120-h feeding period",did not alter
